target: T1, mutant EGFR (T790M, L858R) (Homo sapiens, UniProt P00533, L858R/T790M); assay: In vitro kinase assay (phage/DNA-tagged kinase competition binding, qPCR readout), mutant EGFR; details: EGFR construct R669 to V1011; 11-point 3-fold dilution series; 1 hour at room temperature
T1 construct: The EGFR constructs span amino acids R669 to V1011 of the EGFR protein; made in house; host or cells: E. coli derived from BL21 (T7 phage) for most assays; remaining kinases in HEK-293 cells
Procedure: For most assays, kinase-tagged T7 phage strains were prepared in an E. coli host derived from the BL21 strain. For the EGFR assays, wild-type EGFR, or mutant EGFR (T790M, L858R) were utilized. The EGFR constructs span amino acids R669 to V1011 of the EGFR protein. E. coli were grown to log-phase and infected with T7 phage and incubated with shaking at 32° C. until lysis. The lysates were centrifuged and filtered to remove cell debris. The remaining kinases were produced in HEK-293 cells and subsequently tagged with DNA for qPCR detection. Streptavidin-coated magnetic beads were treated with biotinylated small molecule ligands for 30 minutes at room temperature to generate affinity resins for kinase assays. The liganded beads were blocked with excess biotin and washed with blocking buffer (SeaBlock (Pierce), 1% BSA, 0.05% Tween 20, 1 mM DTT) to remove unbound ligand and to reduce non-specific binding. Binding reactions were assembled by combining kinases, liganded affinity beads, and test compounds in 1× binding buffer (20% SeaBlock, 0.17×PBS, 0.05% Tween 20, 6 mM DTT). Test compounds were prepared as 111× stocks in 100% DMSO. Kds were determined using an 11-point 3-fold compound dilution series with three DMSO control points. All compounds for Kd measurements are distributed by acoustic transfer (non-contact dispensing) in 100% DMSO. The compounds were then diluted directly into the assays such that the final concentration of DMSO was 0.9%. All reactions performed in polypropylene 384-well plate. Each was a final volume of 0.02 ml. The assay plates were incubated at room temperature with shaking for 1 hour and the affinity beads were washed with wash buffer (1×PBS, 0.05% Tween 20). The beads were then re-suspended in elution buffer (1×PBS, 0.05% Tween 20, 0.5 μM nonbiotinylated affinity ligand) and incubated at room temperature with shaking for 30 minutes. The kinase concentration in the eluates was measured by qPCR.

T1 sequence (P00533 669-1011 T790M/L858R): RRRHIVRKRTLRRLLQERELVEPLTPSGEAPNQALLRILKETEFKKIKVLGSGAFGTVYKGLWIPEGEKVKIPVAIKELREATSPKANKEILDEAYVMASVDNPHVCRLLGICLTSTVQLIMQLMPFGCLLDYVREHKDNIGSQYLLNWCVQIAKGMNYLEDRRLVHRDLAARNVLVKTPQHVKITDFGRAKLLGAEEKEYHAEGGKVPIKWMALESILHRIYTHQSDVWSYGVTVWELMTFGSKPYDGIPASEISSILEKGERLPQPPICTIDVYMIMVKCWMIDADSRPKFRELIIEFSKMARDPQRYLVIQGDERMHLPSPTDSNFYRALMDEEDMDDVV

| SMILES | Kd |
| --- | --- |
| C=CC(=O)N[C@@H]1CN(c2nc(Nc3cn(CCCCCNC(=O)CN4CCN(CC(=O)O)CCN(CC(=O)O)CCN(CC(=O)O)CC4)nc3OC)c3ncn(C)c3n2)C[C@H]1F [Compound 002, 2-[4,7-bis(carboxymethyl)-10-[2-[5-[4-[[2-[(3R,4R)-3-fluoro-4-(prop-2-enoylamino)pyrrolidin-1-yl]-9-methyl-purin-6-yl]amino]-3-methoxy-pyrazol-1-yl]pentylamino]-2-oxo-ethyl]-1,4,7,10-tetrazacyclododec-1-yl]acetic acid] | < 1 nM |

same assay, conditions: ratio of Kd EGFR (WT) to Kd EGFR (L858R, T790M) double mutant

| SMILES | Binding Affinity ratio of WT/DM |
| --- | --- |
| C=CC(=O)N[C@@H]1CN(c2nc(Nc3cn(CCCCCNC(=O)CN4CCN5CCN6CCN(CC4)CC(=O)[O][Lu]([O]C(=O)C5)[O]C(=O)C6)nc3OC)c3ncn(C(C)(C)C)c3n2)C[C@H]1F [Compound 004-Lu] | B (25 < B ≤ 100) |
| C=CC(=O)N[C@@H]1CN(c2nc(Nc3cn(CCCCCNC(=O)CN4CCN5CCN6CCN(CC4)CC(=O)[O][Lu]([O]C(=O)C5)[O]C(=O)C6)nc3CC)c3ncn(C(C)(C)C)c3n2)C[C@H]1F [Compound 005-Lu] | C (100 < C ≤ 1000) |
| C=CC(=O)N1C[C@H](COc2nc(Nc3cnn(CCCCCNC(=O)CN4CCN5CCN6CCN(CC4)CC(=O)[O][Lu]([O]C(=O)C5)[O]C(=O)C6)c3)nc3[nH]cc(Cl)c23)[C@@H](OC)C1 [Compound 007-Lu, N-[5-[4-[[5-chloro-4-[[(3R,4R)-4-methoxy-1-prop-2-enoyl-pyrrolidin-3-yl]methoxy]-7H-pyrrolo[2,3-d]pyrimidin-2-yl]amino]pyrazol-1-yl]pentyl]-2-(3,16,19-trioxo-2,17,18-trioxa-5,8,11,14-tetraza-1λ3-lutetatricyclo[9.6.3.25,14]docosan-8-yl) acetamide] | C (100 < C ≤ 1000) |
| C=CC(=O)N[C@@H]1CN(c2nc(Nc3cn(CCCNC(=O)CN4CCN5CCN6CCN(CC4)CC(=O)[O][Lu]([O]C(=O)C5)[O]C(=O)C6)nc3OC)c3ncn(C)c3n2)C[C@H]1F [Compound 001-Lu] | A (4 < A ≤ 25) |
| C=CC(=O)N[C@@H]1CN(c2nc(Nc3cn(CCCCCNC(=O)CN4CCN(CC(=O)O)CCN(CC(=O)O)CCN(CC(=O)O)CC4)nc3OC)c3ncn(C)c3n2)C[C@H]1F [Compound 002, 2-[4,7-bis(carboxymethyl)-10-[2-[5-[4-[[2-[(3R,4R)-3-fluoro-4-(prop-2-enoylamino)pyrrolidin-1-yl]-9-methyl-purin-6-yl]amino]-3-methoxy-pyrazol-1-yl]pentylamino]-2-oxo-ethyl]-1,4,7,10-tetrazacyclododec-1-yl]acetic acid] | A (4 < A ≤ 25) |

Reference: patent US20250057997A1, “CONJUGATES COMPRISING COVALENT BINDERS FOR TARGETING INTRACELLULAR PROTEINS” (RayzeBio, Inc., priority 2021, published 2025)
